Assay results reported in article PMC8881610 (Nature Communications, 2022).
Where two headings read alike, the source gives them in different places. Where a SMILES comes first, the peptide text is derived from it. [ ]: non-standard residue; d: D form. Aib = CC(C)(N)C(=O)O

Key:
GLP-1R [1] = target: T1, GLP-1R (Homo sapiens, UniProt P43220); experiment: β-arrestin 2 recruitment (BRET); format: cell-based; design: expressed in transfected cells; host or cells: HEK293T; conditions: GLP-1R WT, HEK293T; for Emax: HEK-293T
T1 sequence (P43220 24-463): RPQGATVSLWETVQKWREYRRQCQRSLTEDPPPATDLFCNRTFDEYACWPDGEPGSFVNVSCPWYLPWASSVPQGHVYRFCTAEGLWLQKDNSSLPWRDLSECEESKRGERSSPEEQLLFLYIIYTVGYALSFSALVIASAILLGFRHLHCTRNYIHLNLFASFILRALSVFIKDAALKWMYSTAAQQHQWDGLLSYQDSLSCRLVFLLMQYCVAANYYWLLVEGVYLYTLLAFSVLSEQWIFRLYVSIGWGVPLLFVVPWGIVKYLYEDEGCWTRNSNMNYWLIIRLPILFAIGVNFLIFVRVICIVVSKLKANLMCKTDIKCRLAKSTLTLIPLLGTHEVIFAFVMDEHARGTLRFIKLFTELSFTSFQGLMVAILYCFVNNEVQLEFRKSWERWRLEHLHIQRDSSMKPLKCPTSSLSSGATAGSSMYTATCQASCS
Protocol: HEK293T cells (3.2 × 10^6 cells/10 cm plate) were grown for 24 h before transiently transfection with 15 μg plasmid containing GIPR, GLP-1R or GCGR tagged with Rluc8 and β-arrestin 2 with a Venus-tag at the N terminus at a ratio of 1:9 by Lipofectamine 3000 transfection reagent. After cells were grown for 24 h, transiently transfected cells were then seeded onto poly-D-lysine coated 96-well culture plates (50,000 cells/well) in DMEM with 10% FBS. Cells were grown for 20 h before incubation in assay buffer (HBSS supplemented with 10 mM HEPES, 0.1% BSA or 0.1% casein, pH 7.4) for 30 min at 37 °C. Coelentrazine-h (Yeasen Biotech) was added to a final concentration of 5 μM for 5 min before bioluminescence resonance energy transfer (BRET) readings were made using an EnVision plate reader (PerkinElmer). BRET baseline measurements were collected for 15 cycles prior to ligand addition. After which, BRET was measured for 55 cycles.

GLP-1R [2] = target: T1, GLP-1R; experiment: Whole-cell binding assay, competition with 125I-GLP-1(7-36)NH2; design: Flag; expressed in transfected cells
Protocol: (§1) Human embryonic kidney 293 cells containing SV40 large T-antigen (HEK293T) were cultured in DMEM (Gibco) supplemented with 10% (v/v) fetal bovine serum (FBS, Gibco), 1 mM sodium pyruvate (Gibco) and 100 units/mL penicillin and 100 μg/mL streptomycin at 37 °C in 5% CO2. Chinese hamster ovary (CHO-K1) cells were cultured in F-12 (Gibco) containing 10% FBS, 100 units/mL penicillin and 100 μg/mL streptomycin at 37 °C in 5% CO2. For cAMP and receptor expression assays, HEK293T cells were seeded into 6-well cell culture plates at a density of 7 × 10^5 cells per well. After overnight incubation, cells were transfected with GIPR, GLP-1R or GCGR construct using Lipofectamine 2000 or Lipofectamine 3000 transfection reagent (Invitrogen). For whole-cell binding assay, CHO-K1 cells were seeded into 96-well fibronectin-treated cell culture plates at a density of 3 × 10^4 cells per well. After overnight incubation, cells were transfected with GIPR, GLP-1R or GCGR construct using Lipofectamine 2000 transfection reagent (Invitrogen). Following 24 h culturing, the transfected cells were ready for use.
For GLP-1R and GCGR, CHO-K1 cells (30,000 cells/well) were seeded into Isoplate-96 plates and incubated for 24 h at 37 °C in 5% CO2. The WT or mutant constructs were transiently transfected using Lipofectamine 2000 transfection reagent as previous described. They were then washed twice using F-12 with 0.1% BSA or 0.1% casein, 33 mM HEPES, and incubated for 2 h at 37 °C. […] Cells were washed three times with ice-cold PBS and lysed in PBS with 1% Triton X-100, 20 mM Tris-HCl. After addition of scintillation cocktail (PerkinElmer), radioactivity (CPM) was counted on a MicroBeta^2 microplate counter (PerkinElmer). Data were normalized to the WT response and analyzed using three-parameter logistic equation.

GLP-1R [3] = target: T1, GLP-1R; experiment: cAMP accumulation assay, GLP-1R WT, mutant or modified constructs; format: cell-based; design: Flag; expressed in transfected cells; host or cells: HEK293T; conditions: for EC50 / Emax: HEK293T; for Emax: HEK-293T
Protocol: as §1
The human GLP-1R was modified with its native signal sequence (M1-P23) replaced by the HA signal peptide to facilitate receptor expression. To obtain a GLP-1R–Gs complex with good homogeneity and stability, we used the NanoBiT tethering strategy, in which the C terminus of GLP-1R was directly attached to LgBiT subunit followed by a TEV protease cleavage site and a double MBP tag. […] The constructs were cloned into both pcDNA3.1 and pFastBac vectors for functional assays in mammalian cells and protein expression in insect cells, respectively. Other constructs including the full-length and various mutants of human GLP-1R were cloned into pcDNA3.1 vector for cAMP accumulation and whole-cell binding assays.
For GIPR, GLP-1R and GCGR, multi-targeting agonist stimulated cAMP accumulation was measured by a LANCE Ultra cAMP kit (PerkinElmer). After 24 h culture, the transfected cells were seeded into 384-well microtiter plates at a density of 3,000 cells per well in HBSS supplemented with 5 mM HEPES, 0.1% (w/v) BSA or 0.1% (w/v) casein and 0.5 mM 3-isobutyl-1-methylxanthine. The cells were stimulated with different concentrations of peptide agonists for 40 min at RT. Eu-cAMP tracer and ULight^TM-anti-cAMP were then diluted by cAMP detection buffer and added to the plates separately to terminate the reaction. Plates were incubated at RT for 1 h and the fluorescence intensity measured at 620 nm and […] by an EnVision multilabel plate reader (PerkinElmer).

[4] = GLP-1R WT, 0.1% BSA, read-out: cAMP accumulation pEC50 (converted)
[5] = GLP-1R WT, 0.1% BSA, read-out: cAMP accumulation Emax
[6] = GLP-1R WT, 0.1% casein, read-out: cAMP accumulation Emax

SMILES | Emax (GLP-1R [1]; 0.1% BSA) | Emax (GLP-1R [1]; 0.1% casein) | binding Span (GLP-1R [2]; GLP-1R WT, 0.1% casein, CHO-K1) | EC50 (GLP-1R [3]; [4]) | Emax (GLP-1R [3]; [5]) | Emax (GLP-1R [3]; [6]) | also measured
CC[C@H](C)[C@H](NC(=O)[C@H](CC(C)C)NC(=O)[C@H](Cc1c[nH]c2ccccc12)NC(=O)[C@H](CCC(N)=O)NC(=O)[C@@H](NC(=O)[C@H](Cc1ccccc1)NC(=O)[C@H](C)NC(=O)[C@H](CCCCN)NC(=O)[C@H](CCC(N)=O)NC(=O)[C@H](C)NC(=O)[C@@H](NC(=O)[C@H](CCCCN)NC(=O)[C@H](CC(=O)O)NC(=O)[C@H](CC(C)C)NC(=O)C(C)(C)NC(=O)[C@@H](NC(=O)[C@H](CO)NC(=O)[C@H](Cc1ccc(O)cc1)NC(=O)[C@H](CC(=O)O)NC(=O)[C@H](CO)NC(=O)[C@@H](NC(=O)[C@H](Cc1ccccc1)NC(=O)[C@@H](NC(=O)CNC(=O)[C@H](CCC(=O)O)NC(=O)C(C)(C)NC(=O)[C@@H](N)Cc1ccc(O)cc1)[C@@H](C)O)[C@@H](C)O)[C@@H](C)CC)[C@@H](C)CC)C(C)C)C(=O)N[C@@H](C)C(=O)NCC(=O)NCC(=O)N1CCC[C@H]1C(=O)N[C@@H](CO)C(=O)N[C@@H](CO)C(=O)NCC(=O)N[C@@H](C)C(=O)N1CCC[C@H]1C(=O)N1CCC[C@H]1C(=O)N1CCC[C@H]1C(=O)N[C@@H](CO)C(N)=O [Non-acylated tirzepatide] | 36.6 ± 0.52% | 40.77 ± 0.37% | 80.39 ± 9.18 | 0.00468 nM | 99.1 ± 1.65% | 98.76 ± 0.97% | EC50 (GLP-1R [1]; 0.1% casein, read-out: β-arrestin 2 recruitment pEC50 (converted)): 27.5 nM; IC50 (GLP-1R [2]; GLP-1R WT, 0.1% casein, CHO-K1, read-out: Binding pIC50 (converted)): 24.5 nM; binding Span (GLP-1R [2]; GLP-1R, effect of tirzepatide acylation, CHO-K1): 81.36 ± 4.36 % WT or Tirzepatide; IC50 (GLP-1R [2]; GLP-1R, effect of tirzepatide acylation, CHO-K1, read-out: binding pIC50 (converted)): 12.3 nM; EC50 (GLP-1R [3]; GLP-1R, effect of tirzepatide acylation, read-out: cAMP pEC50 (converted)): 0.00794 nM; Emax (GLP-1R [3]; GLP-1R, effect of tirzepatide acylation, read-out: cAMP Emax): 100 ± 0.88%
CC[C@H](C)[C@H](NC(=O)[C@H](CC(C)C)NC(=O)[C@H](Cc1c[nH]c2ccccc12)NC(=O)[C@H](CCC(N)=O)NC(=O)[C@@H](NC(=O)[C@H](Cc1ccccc1)NC(=O)[C@H](C)NC(=O)[C@H](CCCCNC(=O)COCCOCCNC(=O)COCCOCCNC(=O)CC[C@H](NC(=O)CCCCCCCCCCCCCCCCCCC(=O)O)C(=O)O)NC(=O)[C@H](CCC(N)=O)NC(=O)[C@H](C)NC(=O)[C@@H](NC(=O)[C@H](CCCCN)NC(=O)[C@H](CC(=O)O)NC(=O)[C@H](CC(C)C)NC(=O)C(C)(C)NC(=O)[C@@H](NC(=O)[C@H](CO)NC(=O)[C@H](Cc1ccc(O)cc1)NC(=O)[C@H](CC(=O)O)NC(=O)[C@H](CO)NC(=O)[C@@H](NC(=O)[C@H](Cc1ccccc1)NC(=O)[C@@H](NC(=O)CNC(=O)[C@H](CCC(=O)O)NC(=O)C(C)(C)NC(=O)[C@@H](N)Cc1ccc(O)cc1)[C@@H](C)O)[C@@H](C)O)[C@@H](C)CC)[C@@H](C)CC)C(C)C)C(=O)N[C@@H](C)C(=O)NCC(=O)NCC(=O)N1CCC[C@H]1C(=O)N[C@@H](CO)C(=O)N[C@@H](CO)C(=O)NCC(=O)N[C@@H](C)C(=O)N1CCC[C@H]1C(=O)N1CCC[C@H]1C(=O)N1CCC[C@H]1C(=O)N[C@@H](CO)C(N)=O [Tirzepatide] |  |  |  |  | 99.7 ± 1.5% | 99.1 ± 1.73% | 
CC(C)C[C@H](NC(=O)[C@H](CC(C)C)NC(=O)[C@H](Cc1c[nH]c2ccccc12)NC(=O)[C@H](CCC(N)=O)NC(=O)[C@@H](NC(=O)[C@H](Cc1ccccc1)NC(=O)[C@H](CC(=O)O)NC(=O)[C@H](CCC(N)=O)NC(=O)[C@H](C)NC(=O)[C@H](C)NC(=O)[C@H](CCCNC(=N)N)NC(=O)[C@H](CCC(=O)O)NC(=O)[C@H](CC(=O)O)NC(=O)[C@H](CC(C)C)NC(=O)[C@H](Cc1ccc(O)cc1)NC(=O)[C@H](CCCCN)NC(=O)[C@H](CO)NC(=O)[C@H](CCCCN)NC(=O)[C@H](CC(=O)O)NC(=O)[C@H](CO)NC(=O)[C@@H](NC(=O)[C@H](Cc1ccccc1)NC(=O)[C@@H](NC(=O)CNC(=O)[C@H](CCC(N)=O)NC(=O)C(C)(C)NC(=O)[C@@H](N)Cc1c[nH]cn1)[C@@H](C)O)[C@@H](C)O)C(C)C)C(=O)N[C@@H](CC(=O)O)C(=O)NCC(=O)NCC(=O)N1CCC[C@H]1C(=O)N[C@@H](CO)C(=O)N[C@@H](CO)C(=O)NCC(=O)N[C@@H](C)C(=O)N1CCC[C@H]1C(=O)N1CCC[C@H]1C(=O)N1CCC[C@H]1C(=O)N[C@@H](CO)C(N)=O [Non-lipidated peptide 20] (H-H[Aib]QGTFTSDKSKYLDERAAQDFVQWLLDGGPSSGAPPPS-NH2; N-terminus and C-terminus assumed) | 65.4 ± 1.04% | 64.3 ± 3.97% |  | 0.00288 nM | 99.7 ± 1.41% | 99.2 ± 1.39% | decrease of binding ability (IC50) vs peptide 20 (GLP-1R [2]; GLP-1R, 0.1% casein or 0.1% BSA): 3- to 17 fold; influence on cAMP accumulation vs peptide 20 (GLP-1R [3]; GLP-1R, 0.1% BSA): inappreciably influenced
CCCCCCCCCCCCCCCC(=O)N[C@@H](CCC(=O)NCCCC[C@H](NC(=O)[C@H](CC(=O)O)NC(=O)[C@H](CO)NC(=O)[C@@H](NC(=O)[C@H](Cc1ccccc1)NC(=O)[C@@H](NC(=O)CNC(=O)[C@H](CCC(N)=O)NC(=O)C(C)(C)NC(=O)[C@@H](N)Cc1c[nH]cn1)[C@@H](C)O)[C@@H](C)O)C(=O)N[C@@H](CO)C(=O)N[C@@H](CCCCN)C(=O)N[C@@H](Cc1ccc(O)cc1)C(=O)N[C@@H](CC(C)C)C(=O)N[C@@H](CC(=O)O)C(=O)N[C@@H](CCC(=O)O)C(=O)N[C@@H](CCCNC(=N)N)C(=O)N[C@@H](C)C(=O)N[C@@H](C)C(=O)N[C@@H](CCC(N)=O)C(=O)N[C@@H](CC(=O)O)C(=O)N[C@@H](Cc1ccccc1)C(=O)N[C@H](C(=O)N[C@@H](CCC(N)=O)C(=O)N[C@@H](Cc1c[nH]c2ccccc12)C(=O)N[C@@H](CC(C)C)C(=O)N[C@@H](CC(C)C)C(=O)N[C@@H](CC(=O)O)C(=O)NCC(=O)NCC(=O)N1CCC[C@H]1C(=O)N[C@@H](CO)C(=O)N[C@@H](CO)C(=O)NCC(=O)N[C@@H](C)C(=O)N1CCC[C@H]1C(=O)N1CCC[C@H]1C(=O)N1CCC[C@H]1C(=O)N[C@@H](CO)C(N)=O)C(C)C)C(=O)O [Peptide 20] | 73.5 ± 1.86% | 81 ± 1.28% | 85.25 ± 8.33 |  | 99.24 ± 0.96% | 98.5 ± 1.33% | IC50 (GLP-1R [2]; Fig. 7c receptor binding profile, n = 3 in duplicate, SEM, read-out: GLP-1R (pIC50 ± S.E.M.) (converted)): 3.39 nM; binding Span (GLP-1R [2]; GLP-1R WT, CHO-K1): 99.44 ± 2.88 % WT; IC50 (GLP-1R [2]; GLP-1R WT, CHO-K1, read-out: binding pIC50 (converted)): 6.17 nM; EC50 (GLP-1R [3]; GLP-1R WT, read-out: cAMP pEC50 (converted)): 0.00269 nM; EC50 (GLP-1R [3]; GLP-1R, n = 4, SEM, read-out: cAMP pEC50 ± S.E.M. (converted)): 0.00123 nM; Emax (GLP-1R [3]; GLP-1R WT, read-out: cAMP Emax): 99.6 ± 1.37%; Emax (GLP-1R [3]; GLP-1R, n = 4, SEM, read-out: cAMP Emax ± S.E.M.): 99.6 ± 1.17%
